Experimental data as given in patent US20190275040A1, “COMPOUNDS AND METHODS FOR TREATING OR PREVENTING ALZHEIMER'S DISEASE” (YALE UNIVERSITY, priority 2016, published 2019).
Where two headings read alike, the source gives them in different places.

Assays:
[1] = target: T1, FAK (Homo sapiens, UniProt Q05397); test: FAK Ki and selectivity versus Pyk2; assay type: biochemical
[2] = test system: Pyk2 activation (p-Pyk2); test: Pyk2 activation and Aβo-induced signaling in cells; assay type: cell-based; conditions: 500 nM
Protocol: (§1) In brain slices and in dissociated primary neuronal cultures, Aβo causes Fyn activation, Pyk2 activation, altered Glu-induced calcium signaling, dendritic spine loss and suppression of LTP. […] After developing LC/MS/MS methods to detect PF-719, the extent to which the Pyk2 inhibitor enters brain from peripheral dosing was determined. […] Continuous 25 mg/kg/d minipump i.p. infusion was chosen for treatment of APP/PS1 mice.

[3] = Brain and plasma levels after peripheral dosing (LC/MS/MS); assay type: in vivo, mouse
Protocol: as §1

[4] = test system: cultured mouse hippocampal neurons; test: GFP-Pyk2 overexpression-induced dendritic spine loss in cultured hippocampal neurons; assay type: cell-based; conditions: PF-719 1 μM; Y27632 10 μM; DIV 17-21
Source text: FIG. 7A: TBS-T soluble human Alzheimer's disease brain extracts were immunoblotted with anti-Pyk2 or anti-pY402 Pyk2 specific antibodies. FIG. 7B: Densitometric analysis of the immunoblots from FIG. A. p-Pyk2/Pyk2 ratio values were normalized to control mean value. Data are graphed as mean±SEM (Control, n=10; AD, n=10). *p<0.05 by Student's two-tailed t test. FIG. 7C: Representative immunofluorescent images of Pyk2 immunoreactivity from hippocampal CA1 in WT and Pyk2 null mice at 12-months age. […] FIG. 7D: Hek293T cells were co-transfected with either control vector or flag-tagged Fyn and GFP-tagged Pyk2 or K457A kinase dead mutant. Lysates were immunoblotted with anti-GFP (for GFP tagged Pyk2 and K457A mutant), anti-Fyn, and anti-pSFK antibodies. FIG. 7E: Representative GFP fluorescent images of cultured mouse hippocampal neurons. […] FIG. 7G: Quantification of dendritic spine density in the transfected neurons.
FIG. 10A: GST-RBD pull-down assay from Hek293T cell lysate from cells expressing indicated plasmids. […] FIG. 10B: Levels of RhoA-GTP (RBD pull-down) and RhoA-total (5% lysate) were quantified by densitometric measurement. […] FIG. 10D: Quantification of RhoA-GTP/total RhoA ratio by densitometric analysis. […] FIG. 10E: Representative GFP fluorescence images of the cultured hippocampal neurons. […] FIG. 10F: Quantification of dendritic spine density. […]

[5] = test system: primary hippocampal neurons; test: Dendritic spine motility in primary hippocampal neurons; assay type: cell-based, mouse; conditions: Aβo 24 hours; PF-719 1 μM, Y27632 10 μM
Source text: FIG. 11A: Representative images of dendritic spine motility by standard deviation projection of time-lapse image. […] The standard deviation value for each pixel is shown by thermal color scale. […] FIG. 11B: Quantification of spine motility, expressed as % of changed area of spines with subtraction of changed area of dendritic shaft as background (changed area=(ΔAspine/Aspine×100)−(ΔAshaft/Ashaft×100)). […] Data are graphed as mean±SEM (n=7-8 coverslips from 3 different cultures). **p<0.01, ***p<0.001 by ANOVA, Tukey's multiple comparisons test.
FIG. 18A: Representative images of dendritic spine motility by standard deviation projection of time stacks. […] To display the spine motility in time-lapse images, the time stack images over 5 min of each conditions were projected to standard deviation using Image J and color coated with thermal color scale. […] FIG. 18B: Quantification of spine motility, expressed as % of changed area of spines with subtraction of dendritic shaft area change (changed area=(ΔAspine/Aspine×100)−(ΔAshaft/Ashaft×100)). Mean±SEM (n=5 coverslips).
Time-lapse images were acquired for 5 minutes with 10 second intervals in Tyrode's solution using 60× objective lens driven Volocity software. Time-lapse images (31 time frames over 5 min) were subjected to standard deviation (STD) projection to visualize spine motility in single image and colorized with thermal scale using ImageJ software (NIH). Quantitative measurements of spine motility by calculating the changed area at individual dendritic spines were conducted by using ImageJ software by an observer unaware of treatment group.

[6] = target: T2, Pyk2 (Homo sapiens, UniProt Q14289); test: Luciferase-based (ADP-Glo) PYK2 kinase assay; assay type: biochemical
T2 sequence (Q14289 whole entry, species assumed): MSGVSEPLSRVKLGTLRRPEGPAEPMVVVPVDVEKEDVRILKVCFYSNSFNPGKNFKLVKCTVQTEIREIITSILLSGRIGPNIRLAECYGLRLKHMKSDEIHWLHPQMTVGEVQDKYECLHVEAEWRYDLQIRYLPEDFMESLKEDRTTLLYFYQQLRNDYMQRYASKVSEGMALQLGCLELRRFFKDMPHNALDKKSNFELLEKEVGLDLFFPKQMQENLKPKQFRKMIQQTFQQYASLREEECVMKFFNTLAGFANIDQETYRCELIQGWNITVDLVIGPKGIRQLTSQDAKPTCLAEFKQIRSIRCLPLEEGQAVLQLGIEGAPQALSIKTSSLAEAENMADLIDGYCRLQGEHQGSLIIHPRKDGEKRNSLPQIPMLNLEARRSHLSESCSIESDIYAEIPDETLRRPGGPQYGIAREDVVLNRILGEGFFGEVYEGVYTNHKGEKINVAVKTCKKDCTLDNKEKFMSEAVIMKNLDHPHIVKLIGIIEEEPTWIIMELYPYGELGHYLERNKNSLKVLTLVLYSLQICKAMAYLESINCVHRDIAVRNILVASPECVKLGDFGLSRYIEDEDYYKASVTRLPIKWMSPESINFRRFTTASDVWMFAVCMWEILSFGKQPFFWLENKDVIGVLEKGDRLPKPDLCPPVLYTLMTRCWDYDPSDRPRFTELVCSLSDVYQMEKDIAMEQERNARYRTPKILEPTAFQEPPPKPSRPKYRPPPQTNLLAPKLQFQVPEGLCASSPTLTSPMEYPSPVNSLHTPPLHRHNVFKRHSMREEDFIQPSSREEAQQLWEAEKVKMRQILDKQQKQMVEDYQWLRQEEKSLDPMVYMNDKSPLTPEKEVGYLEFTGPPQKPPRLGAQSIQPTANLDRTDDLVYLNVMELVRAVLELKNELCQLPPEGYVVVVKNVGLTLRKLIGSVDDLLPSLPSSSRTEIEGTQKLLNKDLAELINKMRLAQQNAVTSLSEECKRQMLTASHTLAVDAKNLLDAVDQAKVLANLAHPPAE
Protocol: Enzyme, substrate, ATP and inhibitors are diluted in Tyrosine Kinase Buffer. […] The resulting system is incubated at room temperature for 60 minutes. 5 μl of ADP-GLO™ Reagent are added. […] 10 μl of Kinase Detection Reagent are added. […] Luminescence is recorded (Integration time 0.5-1 second).

[7] = target: T2, Pyk2; conditions: cited from earlier work
[8] = target: T1, FAK; conditions: cited from earlier work

T1 sequence (Q05397 whole entry, species assumed): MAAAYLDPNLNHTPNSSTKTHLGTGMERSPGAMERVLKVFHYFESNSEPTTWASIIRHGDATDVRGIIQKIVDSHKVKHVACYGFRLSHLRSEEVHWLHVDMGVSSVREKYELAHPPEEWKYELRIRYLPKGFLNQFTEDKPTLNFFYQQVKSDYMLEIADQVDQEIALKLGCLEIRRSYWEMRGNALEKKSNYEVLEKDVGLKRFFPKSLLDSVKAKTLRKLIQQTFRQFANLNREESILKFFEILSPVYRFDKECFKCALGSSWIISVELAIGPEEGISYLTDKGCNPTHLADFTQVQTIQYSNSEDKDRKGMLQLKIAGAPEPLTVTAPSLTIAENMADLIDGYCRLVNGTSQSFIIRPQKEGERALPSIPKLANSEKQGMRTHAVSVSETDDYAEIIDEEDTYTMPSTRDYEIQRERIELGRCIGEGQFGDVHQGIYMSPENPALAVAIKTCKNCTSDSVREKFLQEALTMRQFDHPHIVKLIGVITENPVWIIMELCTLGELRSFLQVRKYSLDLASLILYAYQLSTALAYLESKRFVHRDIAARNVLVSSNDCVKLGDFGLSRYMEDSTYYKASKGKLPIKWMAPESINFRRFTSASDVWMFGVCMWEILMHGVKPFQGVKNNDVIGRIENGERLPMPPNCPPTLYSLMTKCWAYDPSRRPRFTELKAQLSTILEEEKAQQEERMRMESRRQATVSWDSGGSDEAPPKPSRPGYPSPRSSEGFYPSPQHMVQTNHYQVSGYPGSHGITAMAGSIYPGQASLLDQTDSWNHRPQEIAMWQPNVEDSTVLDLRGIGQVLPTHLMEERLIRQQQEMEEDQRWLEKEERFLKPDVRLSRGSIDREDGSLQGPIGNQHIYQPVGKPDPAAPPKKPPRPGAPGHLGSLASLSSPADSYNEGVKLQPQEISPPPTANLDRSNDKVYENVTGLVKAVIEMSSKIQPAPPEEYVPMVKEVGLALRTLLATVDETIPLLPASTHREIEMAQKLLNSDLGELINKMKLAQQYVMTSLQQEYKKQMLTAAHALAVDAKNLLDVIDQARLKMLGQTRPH

Compound: CCOc1ccc2nc(SCc3nc(N)nc(N4CCOCC4)n3)sc2c1 [PF-719, 4-(((6-ethoxybenzo[d]thiazol-2-yl)thio)methyl)-6-morpholino-1,3,5-triazin-2-amine]
- selectivity Pyk2 versus FAK [1]: 30 ×
- baseline Pyk2 activation and Aβo-induced signaling in cells [2]: blocked baseline Pyk2 activation and Aβo-induced signaling
- brain level above the Ki ([3]; 5 mg/kg, 90 min): 30 fold
- Kp at 90 min ([3]; mouse, brain and plasma, other: i.p. or p.o., single dose 5 mg/kg i.p. or p.o., 90 min, read-out: brain level as share of plasma level): ~0.3
- concentration at 90 min ([3]; mouse, brain, other: i.p. or p.o., single peripheral dose of 5 mg/kg i.p. or p.o., at 90 min): 450 ± 110 nM
- half-life ([3]; mouse, in vivo, other: i.p. or p.o., single dose 5 mg/kg i.p. or p.o.): 6 h
- Oral bioavailability ([3]; p.o. compared with i.p.): equal
- GFP-Pyk2-induced spine loss [4]: partial rescue
- Aβo-induced decrease in spine motility [5]: rescue fully the Aβo-induced decrease in spine motility
- Pyk2 inhibition in luciferase-based biochemical assay [6]: confirm the respective specificities
- Ki ([7]; isolated Pyk2, read-out: Ki for isolated Pyk2): 15 nM
- Ki ([7]; read-out: Pyk2 Ki): 10 nM
- Ki [8]: 450 nM
